Experimental data as given in US12269804B2, “Quinoxalinone compounds, compositions, methods, and kits for increasing genome editing efficiency” (VERTEX PHARMACEUTICALS INCORPORATED, priority 2018, dated 2025).
pEC50, pIC50: −log10 of the molar value. Where two headings read alike, the source gives them in different places.

Key:
Format in all cases: cell-based, human
[1] = test system: Bronchial Epithelial Cells (BECs), AAVS1; assay: HDR rates in BECs, gene editing components delivered by lipid-mediated transfection (AAVS1); settings: AAVS1, lipid-based transfection, 72 hs after transfection
Experimental: (§1) Bronchial Epithelial Cells (BECs) were derived from human donors diagnosed with Cystic Fibrosis with a CFTR dF508/dF508 genotype.
One day prior to transfection, BECs were seeded in a 96-well plate at a cell density of 1×E4 cells per well in BECs culture media. First, 0.15 μl of MessengerMax (ThermoFisher, LMRNA 003) was diluted into 5 μl of Opti-MEM and incubated for 10 min at room temperature. Meanwhile, 80 ng of Cas9 mRNA (Trilink, L-7206), 20 ng of sgRNA (Synthego) and 1 picomol of ssODN were added to 5 μl of Opti-MEM and then mixed with MessengerMAx solution. The mixture was incubated for 5 min prior to addition to the cells. The entire solution was added to the cells in a well of 96-well plate with 100 μl of culture media with or without DNA-PK inhibitors. Cells were incubated at 37° C. for in a 5% CO2 incubator. […]
(§2) Each sequence chromatogram was analyzed using TIDE (Tracking of Indels by Decomposition) software (http://tide.nki.nl) (See also Brinkman et al., Nucleic Acids Research, Volume 42, Issue 22, 16 Dec. 2014, Pages e168). […] NHEJ Rates were calculated as Total Indel rate—HDR rate. […]
To investigate the effects of lipid-mediated transfection, BEC were transfected with spCAS9 mRNA, AAVS1 sgRNA and AAVS1 PAM ssODN and then incubated with different concentration of Compound 1 or left untreated (Control). Gene editing rates were determined by using TIDE assay 72 hs after transfection.

[2] = test system: Induced Pluripotent Stem Cells (iPSCs), AAVS1; assay: Gene editing rates (TIDE assay) in iPSCs electroporated with spCAS9 mRNA, AAVS1 sgRNA and AAVS1 PAM ssODN
Experimental: Induced Pluripotent Stem Cells (iPSCs) were derived from Human dermal fibroblasts after viral transduction with Yamanaka's reprogramming factors, Oct4, Sox2, KLF4 and c-Myc. Derived iPSCs were able to differentiate into 3 germ layers and contained a normal karyotype with 23 pairs of Chromosomes.
For iPSCs the following conditions were used: 2.0×E5 Cells, 250 ng of CAS9 mRNA, 500 ng of sgRNA and 0.66 μM of ssODN in 20 μl of P3 Electroporation buffer by using program CA-137. The electroporated cells were transferred to a 96 well plate containing 100 μl of mTEsR1 media (Stem Cell Technologies) supplemented with 10 μM ROCK Inhibitor Y-27632 (Stem Cell Technologies) with or without DNA-PK inhibitors and then incubated at 37° C. in a 5% CO2 incubator.
(§3) Genomic DNA was isolated by incubating cells with 50 μl DNA Quickextract solution (Epicentre) per well of 96 well plate for 30 min at 37° C. Cellular extract was mixed and transferred into a PCR plate and then incubated for 6 min at 65° C. and 2 min at 98° C. PCR reactions were carried out with 1 μl of Genomic DNA containing solution by using AccuPrime™ Pfx DNA Polymerase (Thermofisher, 12344024). PCR conditions were 4 min at 94° C. (1×), followed by 15 s at 94° C., 15 s at 60° C. and 1 min at […] (40×). The PCR products were purified and then Sanger sequenced by GENEWIZ. The following primer pairs spanning the target site were used for PCR (FW, forward; RV, reverse). Primers used by Sanger Sequencing are indicated by an asterisk (*): […]
(§4) Each sequence chromatogram was analyzed using TIDE (Tracking of Indels by Decomposition) software (http://tide.nki.nl) (See also Brinkman et al., Nucleic Acids Research, Volume 42, Issue 22, 16 Dec. 2014, Pages e168). Mock-electroporated samples were used as the reference sequence, and parameters were set to an indel size of 30 nt, and the decomposition window was set to cover the largest possible window with high-quality traces. Total indel (insertion and deletions) rates were obtained directly from TIDE plots. HDR rates were the percentage of events with an insertion of 10 Nucleotides. NHEJ Rates were calculated as Total Indel rate—HDR rate. GraphPad Prism 7 software was used to make Graphs and to calculate the all Statistical information.
To investigate the effect of DNA-PK inhibitors on HDR gene editing rates, iPSCs were electroporated with spCAS9 mRNA, AAVS1 sgRNA and AAVS1 PAM ssODN and then incubated with different concentrations of Compound 1 or left untreated (Control). Gene editing rates were determined by using TIDE assay 72 hs after electroporation. Gene editing rates were expressed in percentages and classified as HDR and NHEJ. Cell survival rates are shown in percentages where control cells were set as 100%.

[3] = test system: Bronchial Epithelial Cells (BECs), AAVS1; assay: Gene editing rates (TIDE assay) in BECs electroporated with spCAS9 mRNA, AAVS1 sgRNA and AAVS1 PAM ssODN
Experimental: as §1
(§5) For BECs, the following conditions were used for electroporation: 1.8×E5 Cells, 250 ng of CAS9 mRNA, 500 ng of sgRNA and 0.66 μM of ssODN in 20 μl of P4 Electroporation buffer by using program CM-138. The electroporated cells were transferred to a 96 well plate containing 100 μl of BEC culture media supplemented with DNA-PK inhibitors or left untreated. Cells were incubated at 37° C. in a 5% CO2 incubator.
as §3, with “reverse).” for “reverse). Primers used by Sanger Sequencing are indicated by an asterisk (*):”
as §2
To investigate the gene editing kinetics at EC max, BECs were electroporated with spCAS9 mRNA, AAVS1 sgRNA and AAVS1 PAM ssODN and then incubated at different times with 10 μM Compound 1 or left untreated (Control). Gene editing rates were determined by using TIDE assay and expressed in percentages of HDR and NHEJ. […]
BECs were electroporated with spCAS9 mRNA, AAVS1 sgRNA and AAVS1 PAM ssODN and then incubated at different times with 0.7 μM Compound 1 or left untreated (Control). Gene editing rates were determined by using TIDE assay and expressed in percentages of HDR and NHEJ. […]

[4] = test system: CD34+ cells, AAVS1; assay: HDR gene editing in CD34+ cells at AAVS1 (Summary Table); settings: for pEC50: Homo sapiens
Experimental: (§6) Primary human mobilized peripheral blood (mPB) CD34^+ hematopoietic stem and progenitor cells (HSPCs) were purchased from Hemacare or AllCells. Cells were thawed, washed and resuspended in complete medium comprised of serum free medium CellGro SCGM (CellGenix) and supplemented with cytokine mix (300 ng/mL SCF, 300 ng/mL Flt3L, 100 ng/mL TPO, 60 ng/ml IL-3) at a density of 1-3×10^5 cells per mL and incubated at 37° C./5% CO2 incubator for 48 hours prior to electroporation.
(§7) CD34+ cells were electroporated two days post thaw. The following conditions were used for electroporation: 2.0×E6 cells, 15 μg Cas9 protein (Feldan), 15 μg sgRNA, 1 μM of ssODN in 100 μl of P3 electroporation buffer using program CA-137. Electroporated cells were transferred by equally dividing them into eight wells of a 24-well plate, each well containing various concentrations of DNA-PK inhibitors. Cells were incubated at 37° C. in a 5% CO2 incubator for two days and evaluated for cell viability and gene editing.
as §3, §4

[5] = test system: mPB CD34+ cells, NAV1.7; assay: Gene editing rates (TIDE assay) in mPB CD34+ cells electroporated with RNP (spCAS9 protein+NAV1.7 sgRNA) and NAV1.7 Non-PAM ssODN; settings: for pEC50: Homo sapiens
Experimental: as §6, §7, §3, §4
To investigate the effect of DNA-PK inhibitors on HDR gene editing rates, mPB CD34+ cells were electroporated with RNP (spCAS9 protein+NAV1.7 sgRNA) and NAV1.7 Non-PAM ssODN. Cells were then incubated with various concentrations of Compound 1. Gene editing rates were determined by using TIDE assay 48 h after electroporation. Gene editing rates were expressed in percentages and classified as HDR and NHEJ as shown in FIG. 3A (Donor B) and FIG. 3B (Donor C. Cell survival rates are shown in percentages where control cells were set as 100%.

[6] = test system: Bronchial Epithelial Cells (BECs), NAV1.7; assay: Gene editing rates (TIDE assay) in BECs electroporated with spCAS9 mRNA, NAV1.7 sgRNA and NAV1.7 Non-PAM ssODN
Experimental: as §1, §5, §3, §4
FIG. 1 illustrates the design of the gene editing assays used in the examples below. To investigate the effect of DNA-PK inhibitors on HDR gene editing rates, BECs were electroporated with spCAS9 mRNA, NAV1.7 sgRNA and NAV1.7 Non-PAM ssODN and then incubated with different concentrations Compound 1 or left untreated (Control). Gene editing rates were determined by using TIDE assay 72 hs after electroporation. Gene editing rates were expressed in percentages and classified as HDR and NHEJ. Cell survival rates are shown in percentages where control cells were set as 100%.

In the case of `Cn1c(=O)cnc2cc(N3CCOCC3)cc(O[C@H]3CC[C@@H](Nc4ncccn4)CC3)c21` [Compound 1, 1-methyl-6-morpholino-8-(((1,4-cis)-4-(pyrimidin-2-ylamino)cyclohexyl)oxy)quinoxalin-2(1H)-one], the HDR efficiency rates [1] was “increasing HDR efficiency rates with increasing concentrations”, the “HDR Max %” value ([2]; AAVS1) was 24% and the “HDR TOP %” value ([2]; AAVS1, TIDE assay 72 hs after electroporation) was 24.41%. It also gave a pEC50 ([2]; Homo sapiens, iPSC, AAVS1, TIDE assay 72 hs after electroporation, read-out: HDR EC50) of 6.49, a pIC50 ([2]; Homo sapiens, iPSC, AAVS1, TIDE assay 72 hs after electroporation, read-out: NHEJ IC50) of 6.32 and a pEC50 ([2]; Homo sapiens, iPSC, AAVS1, read-out: HDR EC50) of 6.48. The “HDR Max %” value [3] was 66%, the “Maximum Enhance Concentration (ECmax)” value [3] was 10 µM and the pEC50 ([3]; Homo sapiens, Epithelial cell, read-out: Enhance Concentration 50 (EC50)) was 6.15. The “HDR Max %” value ([4]; Donor A) was 76%, the “HDR Max %” value ([4]; Donor C) was 88% and the pEC50 ([4]; Donor A) was 6.92. For the same molecule, the pEC50 ([4]; Donor C) was 6.74, the “HDR Max %” value ([5]; CD34+, Donor A, NaV1.7) was 82% and the “HDR Max %” value ([5]; CD34+, Donor B, NaV1.7) was 86%. For the same molecule, the “HDR Max %” value ([5]; CD34+, Donor C, NaV1.7) was 67%, the pEC50 ([5]; 48 h, CD34+ cells, Donor B, NAV1.7, 48 h after electroporation, read-out: EC50 of HDR) was 6.54 and the pEC50 ([5]; 48 h, CD34+ cells, Donor B, NAV1.7, 48 h after electroporation, read-out: EC50 of Indel formation) was 6.46. For the same molecule, the pEC50 ([5]; CD34+, Donor A, NaV1.7, read-out: HDR EC50) was 6.41, the pEC50 ([5]; CD34+, Donor B, NaV1.7, read-out: HDR EC50) was 6.54 and the pEC50 ([5]; CD34+, Donor C, NaV1.7, read-out: HDR EC50) was 6.96. It also gave a pEC50 ([6]; Homo sapiens, Epithelial cell, NAV1.7, TIDE assay 72 hs after electroporation, read-out: HDR EC50) of 6.35, a pIC50 ([6]; Homo sapiens, Epithelial cell, NAV1.7, TIDE assay 72 hs after electroporation, read-out: NHEJ IC50) of 6.35 and a pEC50 ([6]; Homo sapiens, Epithelial cell, NaV1.7, read-out: HDR EC50) of 6.14. The “HDR TOP %” value ([6]; NAV1.7, TIDE assay 72 hs after electroporation) was 69.37% and the “HDR Max %” value ([6]; NaV1.7) was 69%.
